Experimental data from patent publication US7495027B2, “3-aryl-4-hydroxyfuranone compounds and the human and animal health use thereof” (Wyeth, priority 2003, dated 2009).
Converted amounts (≈) assume the structure as drawn. Like-named read-outs stand apart in the source and are kept apart here.

Tests used:
[1] = biological target: E. coli Enopyruvyl-UPD-N-acetylglucosamine reductase, Mur B (Escherichia coli, UniProt P08373); test: biochemical; conditions: (E) E. coli enzyme; for IC50: read-out: MurB IC50 (converted)
[2] = biological target: T1, S. aureus Uridine-diphosphate-N-acetvimuramoyl: L-alanine lipase, MurC (Staphylococcus aureus, UniProt Q2FXJ0); test: biochemical; conditions: (S) S. aureus enzyme; for IC50: read-out: MurC IC50 (converted)
T1 sequence (Q2FXJ0 1-437): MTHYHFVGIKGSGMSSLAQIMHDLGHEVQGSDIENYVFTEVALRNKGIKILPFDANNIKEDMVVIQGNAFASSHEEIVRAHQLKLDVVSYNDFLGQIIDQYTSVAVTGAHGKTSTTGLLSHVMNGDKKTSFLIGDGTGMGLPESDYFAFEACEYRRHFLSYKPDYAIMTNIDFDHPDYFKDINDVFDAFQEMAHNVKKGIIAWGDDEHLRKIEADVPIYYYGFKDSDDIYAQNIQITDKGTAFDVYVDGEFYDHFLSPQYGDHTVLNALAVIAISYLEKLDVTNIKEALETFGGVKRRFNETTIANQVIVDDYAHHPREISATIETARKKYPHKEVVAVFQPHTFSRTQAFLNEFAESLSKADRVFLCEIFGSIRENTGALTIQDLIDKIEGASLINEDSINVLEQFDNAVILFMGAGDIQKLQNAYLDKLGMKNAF
Procedure: S. aureus and E. coli Uridine-diphosphate-N-acetvimuramoyl: L-alanine lipase, MurC
Preparation of Enzyme Solution:
A 1 mg/mL stock solution of MurC is prepared in a buffer consisting of 20 mM Tris/HCl (pH 8.5) with 2.5 μM BME. The stock solution is further diluted with the buffer to give a final enzyme concentration of 100 μg/mL for the E. coli stock solution and 70 μg/mL for the S. aureus stock solution.
Preparation of Test Compound Solutions:
All test solutions are prepared in DMSO as 10 mg/mL, then diluted with 50 mM Tris/HCl (pH 8.5) to 100 μg/mL.
Preparation of Stop Solution:
The stop solution is prepared by stirring 1 part 4.2% ammonium molydbate in 4N HCl with 2 parts 0.045% malachite green for 30 min.
In this evaluation, the inhibitory activity of a test compound against MurC, the enzyme which catalyzes the third step of bacterial cell wall bioxynthesis is determined. Experiments are performed by adding 2.5 μl buffer, 2.5 μl 0.5M NH4SO2, 5 μl 2 μM L-Ala, 5 μl enzyme solution and 6.5 μl test compound solution to each well in a 96-well microplate. After a pre-incubation period of 10 mins. at 23° C., 3.75 μl of a 0.75 μM solution of UDP-MurNac is added to each well. Following an incubation period of 10 mins. at 37° C., 210 μl stop solution and 50 μl of a 34% w/v sodium citrate solution are added and color is allowed to develop for 10 mins. at 23° C. (Lanzetta et al., Analytical Biochemistry, 1979, 95) Optical density readings are taken at 660 nm using a Molecular Devices Spectra Max 250 with Soft Max software. Controls are performed using the same procedure and omitting the addition of UDP-MurNac. […]
Using these values the IC50 is determined by linear regression analysis.

enterococci = test: Minimum inhibitory concentration, microdilution broth method, enterococci; format: cell-based; conditions: Mueller-Hinton broth, 18-22 hours at 35° C.; for MIC: Enterococcus faecalis
In short: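 Organisms, including methicillin-, penicillin- and/or vancomycin-resistant clinical isolates, tested by NCCLS M7-A5 microdilution. Medium: Mueller-Hinton broth for staphylococci and enterococci, supplemented with 5% lysed horse blood for streptococci.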

[3] = biological target: T2, S. aureus Enopyruvyl-UPD-N-acetylglucosamine reductase, Mur B (Staphylococcus aureus, UniProt P61431); test: biochemical; conditions: (S) S. aureus enzyme
T2 sequence (P61431 1-307): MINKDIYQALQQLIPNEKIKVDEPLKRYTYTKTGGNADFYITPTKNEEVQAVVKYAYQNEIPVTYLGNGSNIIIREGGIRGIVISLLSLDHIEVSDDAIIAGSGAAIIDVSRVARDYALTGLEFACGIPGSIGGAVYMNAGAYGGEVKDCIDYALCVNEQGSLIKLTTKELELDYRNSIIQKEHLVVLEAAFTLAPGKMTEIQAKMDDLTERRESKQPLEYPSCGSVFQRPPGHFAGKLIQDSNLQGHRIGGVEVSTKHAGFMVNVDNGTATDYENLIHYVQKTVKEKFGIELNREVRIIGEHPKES

[4] = E. faecalis GC 2242, read-out: MIC E. faecalis GC 2242
[5] = E. faecalis GC 4555, read-out: MIC E. faecalis GC 4555

Chain of E. coli Enopyruvyl-UPD-N-acetylglucosamine reductase, Mur B (P08373 whole entry): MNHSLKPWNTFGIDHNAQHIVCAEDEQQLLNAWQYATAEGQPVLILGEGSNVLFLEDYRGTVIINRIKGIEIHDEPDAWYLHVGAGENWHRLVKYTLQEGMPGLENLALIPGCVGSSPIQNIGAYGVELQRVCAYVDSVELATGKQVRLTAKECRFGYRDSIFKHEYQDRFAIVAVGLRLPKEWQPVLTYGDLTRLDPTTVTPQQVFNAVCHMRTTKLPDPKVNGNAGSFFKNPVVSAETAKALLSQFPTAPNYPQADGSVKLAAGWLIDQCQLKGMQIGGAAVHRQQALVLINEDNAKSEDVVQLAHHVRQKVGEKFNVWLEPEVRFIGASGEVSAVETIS

Structure (SMILES) | MurB IC50 [1] | MurC IC50 [2] | MIC E. faecalis GC 2242 (enterococci; E. faecalis GC 2242) | MIC E. faecalis GC 4555 (enterococci; E. faecalis GC 4555) | IC50 [2] | MIC (enterococci; [4]) | MIC (enterococci; [5]) | IC50 [1] | MurB IC50 [3] | IC50 ([3]; read-out: MurB IC50 (converted))
O=C1O/C(=C\c2ccc(-c3cccc(C(F)(F)F)c3)cc2)C(O)=C1c1cccc(C(F)(F)F)c1 | 4 (E) μg/mL | 22 µg/mL | 1 µg/mL (≈ 2.1 µM) | 4 µg/mL (≈ 8.4 µM) | – | – | – | – | – | –
O=C1O/C(=C\c2ccc(-c3cc(Cl)cc(Cl)c3)cc2)C(O)=C1c1cc(Cl)cc(Cl)c1 | 3 (E) μg/mL | – | – | – | 48.1 µM | 0.5 µg/mL (≈ 1.05 µM) | 1 µg/mL (≈ 2.09 µM) | – | – | –
O=C1OC(=Cc2ccc(-c3ccccc3)cc2)C(O)=C1c1cccc(C(F)(F)F)c1 (mixture of isomers) [Example 11] | 6 (E) μg/mL | 5 µg/mL | 1 µg/mL | 8 µg/mL | – | – | – | – | – | –
Cc1ccc(C=C2OC(=O)C(c3ccc(Cl)cc3)=C2O)s1 (mixture of isomers) [Example 13] | 12 (E) μg/mL | 15 µg/mL | >128 µg/mL | >128 µg/mL | – | – | – | – | – | –
O=C1O/C(=C\c2ccc(-c3ccccc3)cc2)C(O)=C1c1cccc(C(F)(F)F)c1 [Example 10] | – | – | – | – | 17.1 µM | 1 µg/mL (≈ 2.45 µM) | 8 µg/mL (≈ 19.6 µM) | 14.7 µM | – | –
Cc1ccc(C=C2OC(=O)C(c3ccc(Cl)cc3)=C2O)s1 [Example 14] | >25 (E) μg/mL | 22 µg/mL | 64 µg/mL (≈ 201 µM) | 4 µg/mL (≈ 12.5 µM) | – | – | – | – | – | –
O=C1O/C(=C\C2CCCCC2)C(O)=C1c1ccc(Cl)cc1 [Example 15] | – | – | – | – | > 82 µM | 32 µg/mL (≈ 105 µM) | 64 µg/mL (≈ 210 µM) | > 82 µM | – | –
O=C1OC(=CC2CCCCC2)C(O)=C1c1cccc(C(F)(F)F)c1 [Example 16] | >25 (E) μg/mL | 22 µg/mL | 64 µg/mL (≈ 189 µM) | 64 µg/mL (≈ 189 µM) | – | – | – | – | – | –
O=C1O/C(=C\C2CCCCC2)C(O)=C1c1cccc(C(F)(F)F)c1 [Example 17] | – | – | – | – | > 73.9 µM | 32 µg/mL (≈ 94.6 µM) | 64 µg/mL (≈ 189 µM) | > 70.9 µM | – | –
O=C1O/C(=C\c2ccc(N3CCOCC3)c(F)c2)C(O)=C1c1cc(Cl)cc(Cl)c1 [Example 34] | – | 21 (S) μg/mL | 64 µg/mL (≈ 147 µM) | 64 µg/mL (≈ 147 µM) | – | – | – | – | 6 (S) μg/mL | –
COc1ccc(C=C2OC(=O)C(c3cccc(Cl)c3)=C2O)c2ccccc12 [Example 35] | – | 8 (S) μg/mL | 8 µg/mL (≈ 21.1 µM) | 16 µg/mL (≈ 42.2 µM) | – | – | – | – | 6 (S) μg/mL | –
O=C1O/C(=C\c2cccc(C(F)(F)F)c2)C(O)=C1c1ccc2ccccc2c1 [Example 42] | 10 (E) μg/mL | – | – | – | 47.1 µM | 8 µg/mL (≈ 20.9 µM) | 32 µg/mL (≈ 83.7 µM) | – | – | –
O=C1O/C(=C\c2cccc3ccccc23)C(O)=C1c1cccc2ccccc12 [Example 47] | – | – | – | – | – | 32 µg/mL (≈ 87.8 µM) | 64 µg/mL (≈ 176 µM) | 63.1 µM | – | 27.4 µM
O=C1O/C(=C\C2CCCCC2)C(O)=C1c1ccc2ccccc2c1 [Example 51] | – | – | – | – | 62.4 µM | 8 µg/mL (≈ 25 µM) | 32 µg/mL (≈ 99.9 µM) | > 78 µM | – | –
O=C1O/C(=C\c2ccc3ccccc3c2)C(O)=C1c1ccc2ccccc2c1 [Example 52] | – | – | – | – | > 68.6 µM | 4 µg/mL (≈ 11 µM) | 8 µg/mL (≈ 22 µM) | > 68.6 µM | – | –
O=C1O/C(=C\c2ccc(-c3ccccc3)cc2)C(O)=C1c1ccc(Cl)cc1 [Example 53] | – | – | – | – | 18.7 µM | 4 µg/mL (≈ 10.7 µM) | 8 µg/mL (≈ 21.3 µM) | 16 µM | – | –
O=C1O/C(=C\c2ccc3ccccc3c2)C(O)=C1c1ccc(Cl)cc1 [Example 54] | – | – | – | – | 31.5 µM | 4 µg/mL (≈ 11.5 µM) | 32 µg/mL (≈ 91.7 µM) | 22.9 µM | – | –
O=C1O/C(=C\c2ccc3ccccc3c2)C(O)=C1c1cccc2ccccc12 [Example 56] | – | – | – | – | 30.2 µM | 8 µg/mL (≈ 22 µM) | 32 µg/mL (≈ 87.8 µM) | > 68.6 µM | – | –
O=C1O/C(=C\c2ccc(-c3ccccc3)cc2)C(O)=C1c1cc(Cl)cc(Cl)c1 [Example 67] | – | – | – | – | 44 µM | 0.5 µg/mL (≈ 1.22 µM) | 2 µg/mL (≈ 4.89 µM) | 2.44 µM | – | –
O=C1O/C(=C\c2ccc(-c3ccccc3)cc2)C(O)=C1c1cccc(Cl)c1 [Example 69] | – | – | – | – | 13.3 µM | 0.5 µg/mL (≈ 1.33 µM) | 0.5 µg/mL (≈ 1.33 µM) | 13.3 µM | – | –
O=C1O/C(=C\C2CCCCC2)C(O)=C1c1ccc(-c2ccccc2)cc1 [Example 100] | – | – | – | – | 46.2 µM | > 128 µg/mL | > 128 µg/mL | – | – | –
O=C1O/C(=C\c2cccnc2)C(O)=C1c1ccc(-c2ccccc2)cc1 [Example 101] | – | – | – | – | 67.4 µM | 64 µg/mL (≈ 187 µM) | > 128 µg/mL | > 73.2 µM | – | –
Cc1ccc(/C=C2\OC(=O)C(c3ccc(-c4ccccc4)cc3)=C2O)s1 [Example 104] | – | – | – | – | 52.7 µM | 32 µg/mL (≈ 88.8 µM) | 64 µg/mL (≈ 178 µM) | – | – | –
O=C1O/C(=C\c2cccc(C(F)(F)F)c2)C(O)=C1c1ccc(-c2ccccc2)c(F)c1 [Example 106] | 12 (E) μg/mL | – | – | – | 28.1 µM | 0.25 µg/mL (≈ 0.586 µM) | 1 µg/mL (≈ 2.35 µM) | – | – | –
O=C1O/C(=C\c2ccc(C(F)(F)F)cc2)C(O)=C1c1ccc(-c2ccccc2)cc1 [R=H, R1=4-(biphenyl), R2=4-CF3—C6H4] | – | – | – | – | 29.4 µM | 2 µg/mL (≈ 4.9 µM) | 8 µg/mL (≈ 19.6 µM) | 14.7 µM | – | –
O=C1O/C(=C\c2ccc(-c3ccc(Cl)cc3)cc2)C(O)=C1c1ccc(Cl)cc1 [R=H, R1=4-Cl—C6H4, R2=4-(4′-Cl-biphenyl)] | – | – | – | – | – | 2 µg/mL (≈ 4.89 µM) | 8 µg/mL (≈ 19.5 µM) | 7.33 µM | – | –
